What was measured:
Type in all cases: in vivo
[1] = test system: Beet Armyworm (Spodoptera exigua, LAPHEG) (BAW); assay: Bioassays on Beet Armyworm (BAW), 128-well diet tray assay; conditions: Table ABC rating, Beet Armyworm
Procedure, shortened: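 Beet armyworm (Spodoptera exigua) was tested with a 128-well diet tray format. Each 3 mL well held 1 mL of artificial diet treated with the test molecule in 50 μL of 90:10 acetone-water and allowed to dry, across eight wells. One to five second instar larvae were added per well. Trays were sealed with clear self-adhesive covers and kept at 25° C. under 14:10 light-dark for five to seven days. Percent mortality was scored per well and averaged across the eight wells.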

[2] = test system: Cabbage Looper (Trichoplusia ni, TRIPNI) (CL); assay: Bioassays on Cabbage Looper (CL), 128-well diet tray assay; conditions: Table ABC rating, Cabbage Looper
Procedure, shortened: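 Cabbage looper (Trichoplusia ni) larvae at the second instar stage were tested in a 128-well diet tray. Each 3 mL well held 1 mL of artificial diet treated with test molecule dissolved in 50 μL of 90:10 acetone-water and allowed to dry, eight wells per treatment. One to five larvae were added per well. Trays were sealed with clear self-adhesive covers and kept at 25° C., 14:10 light-dark for five to seven days. Percent mortality per well was averaged across the eight wells.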

[3] = test system: Green Peach Aphid (Myzus persicae, MYZUPE) (GPA); assay: Bioassays on Green Peach Aphid (GPA), cabbage seedling foliar spray; conditions: Table ABC rating
Method: Example B: Bioassays on Green Peach Aphid (Myzus persicae, MYZUPE) (“GPA”) Certain molecules disclosed in this document were tested against GPA using procedures described in the following example. In the reporting of the results, the “GPA & YFM Rating Table” was used (See Table Section). Cabbage seedlings grown in 3-inch pots, with 2-3 small (3-5 cm) true leaves, were used as test substrate. The seedlings were infested with 20-50 GPA (wingless adult and nymph stages) one day prior to chemical application. Four pots with individual seedlings were used for each treatment. Test molecules (2 mg) were dissolved in 2 mL of acetone/methanol (1:1) solvent, forming stock solutions of 1000 ppm test molecule. The stock solutions were diluted 5× with 0.025% Tween 20 in water to obtain the solution at 200 ppm test molecule. A hand-held aspirator-type sprayer was used for spraying a solution to both sides of […] leaves until runoff. Reference plants (solvent check) were sprayed with the diluent only containing 20% by volume of acetone/methanol (1:1) solvent. Treated plants were held in a holding room for three days at approximately 25° C. and ambient relative humidity (RH) prior to grading. Evaluation was conducted by counting the number of live aphids per plant under a microscope. Percent Control was measured by using Abbott's correction formula (W. S. Abbott, “A Method of Computing the Effectiveness of an Insecticide” J. Econ. Entomol. 18 (1925), pp. 265-267) as follows. Corrected % Control=100*(X−Y)/X • where • X=No. of live aphids on solvent check plants and • Y=No. of live aphids on treated plants The results are indicated in the table entitled “Table ABC: Biological Results” (See Table Section).

[4] = test system: Yellow Fever Mosquito (Aedes aegypti, AEDSAE) (YFM); assay: Bioassays on Yellow Fever Mosquito (YFM), 96-well plate larval assay; conditions: Table ABC rating
Method: Example C: Bioassays on Yellow Fever Mosquito (Aedes aegypti, AEDSAE) (“YFM”)
Certain molecules disclosed in this document were tested against YFM using procedures described in the following paragraph. In the reporting of the results, the “GPA & YFM Rating Table” was used (See Table Section).
Master plates containing 400 μg of a molecule dissolved in 100 μL of dimethyl sulfoxide (DMSO) (equivalent to a 4000 ppm solution) are used. A master plate of assembled molecules contains 15 μL per well. To this plate, 135 μL of a 90:10 water:acetone mixture is added to each well. A robot (Biomek® NXP Laboratory Automation Workstation) is programmed to dispense 15 μL aspirations from the master plate into an empty 96-well shallow plate (“daughter” plate). There are 6 reps (“daughter” plates) created per master. The created daughter plates are then immediately infested with YFM larvae.
The day before plates are to be treated, mosquito eggs are placed in Millipore water containing liver powder to begin hatching (4 g. into 400 mL). After the daughter plates are created using the robot, they are infested with 220 μL of the liver powder/larval mosquito mixture (about 1 day-old larvae). After plates are infested with mosquito larvae, a non-evaporative lid is used to cover the plate to reduce drying. Plates are held at room temperature for 3 days prior to grading. After 3 days, each well is observed and scored based on mortality. The results are indicated in the table entitled “Table ABC: Biological Results” (See Table Section).

SMILES	pest or weed control at 50 µg/cm2 [1] [%]	pest or weed control at 50 µg/cm2 [2] [%]	GPA [3]	YFM [4]
CO/N=C\NC(=O)c1ccc(/C(F)=C/C(c2cc(Cl)c(Cl)c(Cl)c2)C(F)(F)F)cc1C(F)(F)F (mixture of isomers) [F19, N-((E/Z)-(methoxyimino)methyl)-4-((Z)-1,4,4,4-tetrafluoro-3-(3,4,5-trichlorophenyl)but-1-en-1-yl)-2-(trifluoromethyl)benzamide]	50 to 100	50 to 100	B (More than 0-Less than 80)	
O=C(NC1CC1)c1ccc(/C(F)=C/C(c2cc(Cl)c(Cl)c(Cl)c2)C(F)(F)F)cc1C(F)(F)F (stereo not drawn) [F3, (Z)—N-Cyclopropyl-4-(1,4,4,4-tetrafluoro-3-(3,4,5-trichlorophenyl)but-1-en-1-yl)-2-(trifluoromethyl)benzamide]	50 to 100	50 to 100	B (More than 0-Less than 80)	
O=C(NC1CC(F)(F)C1)c1ccc(/C(F)=C/C(c2cc(Cl)c(Cl)c(Cl)c2)C(F)(F)F)cc1C(F)(F)F (stereo not drawn) [F7, (Z)—N-(3,3-difluorocyclobutyl)-4-(1,4,4,4-tetrafluoro-3-(3,4,5-trichlorophenyl)but-1-en-1-yl)-2-(trifluoromethyl)benzamide]	50 to 100	50 to 100	A (80-100)	
O=C(NCc1ccccn1)c1ccc(/C(F)=C/C(c2cc(Cl)c(Cl)c(Cl)c2)C(F)(F)F)cc1C(F)(F)F (stereo not drawn) [F51, (Z)—N-(Pyridin-2-ylmethyl)-4-(1,4,4,4-tetrafluoro-3-(3,4,5-trichlorophenyl)but-1-en-1-yl)-2-(trifluoromethyl)benzamide]	50 to 100	50 to 100		A (80-100)
CC(NC(=O)c1ccc(/C(F)=C/C(c2cc(Cl)c(Cl)c(Cl)c2)C(F)(F)F)cc1C(F)(F)F)c1ccccn1 (stereo not drawn) [F52, (Z)—N-(1-(Pyridin-2-yl)ethyl)-4-(1,4,4,4-tetrafluoro-3-(3,4,5-trichlorophenyl)but-1-en-1-yl)-2-(trifluoromethyl)benzamide]	50 to 100	50 to 100		A (80-100)
O=C(NCC(F)(F)F)c1ccc(/C(F)=C/C(c2cc(Cl)c(Cl)c(Cl)c2)C(F)(F)F)c2ccccc12 (stereo not drawn) [PF1, (Z)-4-(1,4,4,4-Tetrafluoro-3-(3,4,5-trichlorophenyl)but-1-en-1-yl)-N-(2,2,2-trifluoroethyl)-1-naphthamide]	50 to 100	50 to 100		A (80-100)

Source: US9924717B2, “Molecules having pesticidal utility, and intermediates, compositions, and processes, related thereto” (Dow AgroSciences LLC, priority 2016, dated 2018)
